A word on the melting point: it is the temperature, or range, at which the solid turns liquid.

The values below come from a melting point compilation (Tetko et al.; mined from patent text by program, amines drawn as free bases though some values may be those of a salt).

As to `OCCOCc1c(Br)c(Br)c(COCCO)c(Br)c1Br`, the melting point fell in the range of 145 to 147 °C.
As for `Cc1cc(COc2nn3c(-c4ccccc4)nnc3cc2-c2ccccc2)no1`, the figure is 180 °C.
Regarding `Nc1ncc(-c2ccc(F)c(Cl)c2)nc1C(=O)Nc1cccnc1`, the melting point was 236 to 238 °C.
Under `CN1C(=O)CC[C@]2(C)c3ccc(-c4ccc5c(c4)OCCO5)cc3CC[C@@H]12` stands 183 to 189 °C; under `CCCCCCCCCCCCCCCC(=O)C(O)C(=O)C(O)C(=O)CCCCCCCCCCCCCCC` (stereo not drawn), 80 to 81 °C; under `CC(=Cc1cn(C)c2ccc3c(c12)CCCO3)[N+](=O)[O-]`, 200 to 202 °C.
`Cc1c(O)ccc2c1C(C)(C)CC2` registered a melting point of 92 to 93 °C.
On to `OCC1=CCOc2ccc(Cl)cc21`, for which the melting point lay within 85 to 88 °C.
As for `CCc1cc2[nH]c(=O)ccc2c(CC)n1`, the figure is 168 to 169 °C.
As for `CC(=O)NC(C)c1ccc(CN2CCN(c3ccccn3)CC2)cc1` (stereo not drawn), the figure is 120 to 121 °C.
Under `CCCc1c(C(=O)NCc2ccc(-c3ccc(OCC#N)c(Br)c3)cc2)cnn1-c1ccccc1` stands 102 to 109 °C; under `CN(Cc1ccc(C2=NCCN2C(=O)OC(C)(C)C)cc1)C(=O)/C=C/CNCS(=O)(=O)c1ccc([N+](=O)[O-])cc1[N+](=O)[O-]`, 78 °C; under `CC(=O)N1CCN(c2ccc([N+](=O)[O-])c(C)c2)CC1`, 133 to 137 °C.
`COc1cc(OCc2ccccn2)ccc1/C=C/C(=O)CC(=O)/C=C/c1cc2ccccc2[nH]1` returned a melting point of 178 to 179 °C.
The compound `COC(=O)C(=CO)N(C)C(=O)C=Cc1ccccc1Cl` came in with a melting point of 129 to 130 °C.
As for `Cn1cc([C@H]2CC[C@@H](N3CCN(c4cc(Br)cc5cccnc45)CC3)CC2)c2cc(F)ccc21`, the figure is 215 to 217 °C; as for `Cc1nc2c3c(ccn2c1C)C(O)C(O)C(c1ccccc1)N3` (stereo not drawn), 199 to 200 °C.
Under `Cc1nc(N2CCN(Cc3ncoc3-c3ccccc3)C2=O)sc1C(=O)NCc1cccnc1` stands 78 to 81 °C.
As for `Cc1cc(C)c2c(c1)cc(C(=O)OCc1ccccc1)n2CC(=O)OC(C)(C)C`, the figure is 115 °C; as for `CCOC(=O)C=Cc1cnc(Nc2ccccc2)nc1N`, 190 to 192 °C.
With `NCCn1c(=O)nc(-c2ccc3c(c2)OCO3)c2cc3c(cc21)OCO3`, the melting point lay within 115 to 120 °C.
Under `CC(C)(C)OC(=O)N1CC(CC=O)C1` stands 52 to 54 °C.
The compound `CCCCNc1cc(C(=O)O)cc(S(N)(=O)=O)c1Oc1cccc(NC(C)=O)c1` displayed a melting point of 235 to 240 °C.
`COC(=O)c1cccc(Cl)c1NC(=O)CC1c2ccccc2Oc2ccccc21` displayed a melting point of 178 to 179 °C.
Under `COCCOc1cccc2c1C(=O)c1ccccc1C2=O` stands 146 to 147 °C; under `CC(=O)NCCCc1nc2cnc3ccc(C)cc3c2n1C`, 213 to 215 °C.
As for `CCOC(=O)COc1cc(O)c2c(c1)NC1(CCCCC1)CC2=O`, the figure is 134 to 135 °C.
Under `Cc1cc2ccccc2n1-c1ccc(F)cc1` stands 43 °C.
Compound `CCOCc1cc2cc(Cl)ccc2oc1=Nc1ccc(Cl)cc1` gave a melting point of 126 to 128 °C.
As for `COC(=O)c1c(-c2ccccc2)[nH]c(-c2ccncc2)c1C`, the figure is 202 to 204 °C; as for `CCOC(=O)c1cc(=NS(=O)(=O)c2ccccc2)c2c(Cl)cc(Cl)cc2[nH]1`, 184 to 185 °C.
As for `CCOC(=O)CCCN1C(=O)c2ccc(N/C(=C3\C(=O)Nc4ccccc43)c3ccccc3)cc2C1=O`, the figure is 78 to 80 °C.
With `CCCCNC(=O)c1ccc(Cl)c(-n2nc(CCCC)n(Cc3ccc(Br)cc3F)c2=O)c1`, the melting point was in the range of 114 to 116 °C.
As for `c1ccc2c(NCCN3CCOCC3)noc2c1`, the figure is 79 to 80 °C; as for `CS(=O)(=O)c1ccc(-c2cc(C=O)cn2-c2ccc(F)cc2)cc1`, 98 to 100 °C.
As for `CN1C(=O)CN=C(c2ccccn2)c2cc(C#C[Si](C)(C)C)ccc21`, the figure is 194 to 195 °C; as for `O=C(Nc1nc(-c2ccco2)c(C(=O)c2ccn(Cc3ccccc3)c(=O)c2)s1)c1ccncc1`, 288 to 291 °C; as for `c1ccc(C(=C(c2ccccc2)P(C2CCCCC2)C2CCCCC2)c2ccccc2)cc1`, 121 to 123 °C.
As for `O=[N+]([O-])c1ccc2c(C3=CN4CCC3CC4)c[nH]c2c1`, the figure is 274 to 276 °C.
`Cc1cc(NC(=O)c2[nH]c(C)c(-c3nc4ccc(C(=O)c5ccccc5)cc4[nH]3)c2C)no1` displayed a melting point of 271 to 273 °C.
In turn, `COc1ccc(-c2c(Br)c(CN3C(=O)CCC3=O)nc3sc4c(c23)CCNC4)cc1` gave a melting point of 219 to 221 °C.
As for `Cc1c(C(=O)O)cnn1-c1c(Cl)cc(C(F)(F)F)cc1Cl`, the figure is 187 to 189 °C; as for `CCc1c(-c2ccc(OCc3ccccc3)cc2)c2c(C(=O)OC)c(C(=O)OC)c3c(OCc4ccccc4)ccc1n32`, 115 to 120 °C; as for `O=c1c(/C=C/c2nnn[nH]2)coc2ccccc12`, 254 to 255 °C.
Take `CCCNC(=O)C1(CC=Cc2ccccc2)c2ccccc2CCc2ccccc21`: the melting point is 159 °C.
Under `CC(=O)Nc1ccc(-c2cc(-c3c(-c4cccc(C)n4)nc4ccccn34)ccn2)cc1` stands 257 °C; under `O=C(Nc1cc(Cl)cc(Cl)c1)c1ccccc1SSc1ccccc1C(=O)Nc1cc(Cl)cc(Cl)c1`, 235 to 236 °C.
`CN(C)c1ccc(C(=O)C#Cc2ccncc2)cc1` had a melting point of 143 to 145 °C.
In the case of `O=c1c(Cc2ccccc2)cn(-c2cccc(Cl)c2)c2ncccc12`, the melting point was in the range of 170 to 171 °C.
As for `Oc1ccccc1OCC1CCN(CC(O)COc2cccc3[nH]ccc23)CC1` (stereo not drawn), the figure is 119 to 121 °C; as for `CC(C)(C)CC(C)(C)c1cc(O)c(Sc2ccccc2)c(Sc2nnnn2-c2ccccc2)c1O`, 147 °C; as for `O=C(OCc1ccccc1)N1CCC(O)(CNc2ccc(Cl)c(Cl)c2)CC1`, 128 to 130 °C.
For `O=C(Cn1c(-c2ccc(Cl)cc2)nc2cccnc21)Nc1ccccc1Cl`, the melting point was in the range of 232 to 236 °C.
As for `C[C@H]1[C@H](N)CN1C(c1ccccc1)c1ccccc1` (relative stereo), the figure is 68 to 69 °C; as for `COc1cc(C)c(C(=O)CCCCCCCCCCCCCCCCCCCCC(=O)O)c(O)c1OC`, 103 to 150 °C; as for `CCOC(=O)N1c2ccc(C(F)(F)F)cc2[C@@H](NC(=O)OC)C[C@H]1CC`, 157 to 158 °C.
Under `O=C(CBr)c1csc(-c2ccc([N+](=O)[O-])cc2)n1` stands 186 to 187 °C; under `N#CCc1c[nH]c2ccc(NC(=O)Nc3ccccc3)cc12`, 217 to 219 °C.
In turn, `O=C1[C@H]2CCC[C@H]2Nc2cc([N+](=O)[O-])ccc2N1Cc1ccccc1` (relative stereo) gave a melting point of 174 to 176 °C.
As for `CCOC(=O)NC1CCCCn2c1nc(-c1ccncn1)c(Br)c2=O` (racemic), the melting point lay within 72 to 74 °C.
In turn, `CCC1N=C(c2ccccc2Cl)c2cc(CCC(=O)O)sc2-n2c(C)nnc21` (stereo not drawn) had a melting point of 218 to 220 °C.
Under `CC(C)NCC(O)c1cc(CO)cc(OCc2ccccc2)c1` (stereo not drawn) stands 84 to 89 °C.
As for `CC(O)Cn1c(COC(N)=O)nc(C(C)C)c1Sc1cc(Cl)cc(Cl)c1` (stereo not drawn), the figure is 82 °C; as for `O=C(O)C1Cc2ccccc2CN1C(=O)CCS` (stereo not drawn), 55 to 58 °C.
`CCCn1c(=O)c2[nH]c(C3CC4CCC3C4)nc2n(CCC)c1=O` (stereo not drawn) displayed a melting point of 136 to 138 °C.
As for `N#CC1CC(=O)c2cc(F)ccc2O1` (stereo not drawn), the figure is 87 to 89 °C; as for `CN(C)c1cc(C=O)cc(N(C)C)c1N1CCCCC1`, 114 to 116 °C.
As for `COc1ccc2c(C(=O)C3CSC(c4cccnc4)N3)c[nH]c2c1` (stereo not drawn), the figure is 86 to 88 °C; as for `Cc1nc(-c2ccc3c(c2)CCCC3)co1`, 53 to 54 °C; as for `Cc1cc2c(c(C)c1O)OC[C@@H](N1CCC(O)(c3ccc(F)cc3)CC1)[C@H]2O` (relative stereo), 226 to 227 °C.
As for `O=C(O)CNC(=O)c1cccc2c(-c3ccccc3)c([N+](=O)[O-])oc12`, the figure is 123 to 126 °C; as for `O=C(O)c1ccc(CN(C2CCCCC2)S(=O)(=O)c2ccc(F)cc2)cc1`, 218 to 220 °C.
For the compound `COc1ccc(CS(=O)C(C)(C)C)cc1` (stereo not drawn), the melting point is 124 to 126 °C.
As for `O=C(Nc1nc(-c2ccco2)c(-c2ccc(=O)n(Cc3ccccc3)c2)s1)c1ccncc1`, the figure is 215 to 218 °C; as for `Cc1nc(Cl)c2c(c1O)COC2(C)C`, 251 °C; as for `COC(=O)C(=O)N1C(=O)[C@H](N2C(=O)c3ccccc3C2=O)[C@H]1Cl`, 49 to 52 °C.
As for `CCCCCOc1ccc(-c2ccc(CC[C@H]3CC[C@H](CCC)CC3)c(F)c2F)cc1`, the figure is 27 °C; as for `COc1cc2c(cc1OCc1ccccc1)CCNC2c1ccccc1` (stereo not drawn), 118 to 119 °C.
As for `Cn1ncc(/C=C/C(=O)Nc2ccc(CC(=O)NN)cc2)c1-c1ccc(F)cc1`, the figure is 273 to 274 °C; as for `CC(C)Nc1nc(NN)nc(Cl)c1-c1c(F)cc(F)cc1F`, 143 to 150 °C; as for `COc1ccc(C(=O)C#CCO)c(OC)c1OC`, 82 to 83 °C.
As to `CSC(=CC(=O)c1cnccn1)SC`, the melting point worked out at 155 °C.
As for `COC(=O)COc1cc(C)c(SCc2sc(-c3ccc(C(F)(F)F)cc3)nc2C)c(C)c1`, the figure is 113 °C.
Turning to `Cc1cc(OCCCC(=O)N(CCCCO)C2CCCCC2)cc(C=O)c1[N+](=O)[O-]`, the melting point lay within 72 to 73 °C.
As for `CN(C)Cc1nc(CSCCNC(=C[N+](=O)[O-])NCC(O)c2ccccc2)cs1` (stereo not drawn), the figure is 100 to 101 °C; as for `COc1cccc2c(CCO)c(C)oc12`, 58 to 59 °C.
As for `C#CCOC(=O)C1=C(C)NC(C)=C(C(=O)OCC)C1c1ccccc1C` (stereo not drawn), the figure is 129 °C.
As for `CCOC(=O)c1cn(-c2ccc(C(F)(F)F)cn2)nc1C(C)C`, the figure is 94 to 95 °C.
